Laboratory results: patent US20050220718A1, “Stable pharmaceutical solution formulations for pressurized metered dose inhalers” (Chiesi Farmaceutici S.p.A., priority 2004, published 2005)

Key:
[1] = Stability of TA 2005 + budesonide HFA 134a compositions with phosphoric acid, 40° C. and 75% relative humidity; assay type: physicochemical; conditions: TA 2005 1 μg + budesonide 200 μg/actuation, phosphoric acid 85% 0.0032 or 0.0064% w/w, 0.15% w/w water
Procedure: The two compositions containing TA 2005 and budesonide as active ingredients and two different concentrations of phosphoric acid as shown in Table 4 were prepared.
Volume of the valve: 63 μl; strength: TA 2005 1 μg+budesonide 200 μg/actuation; no. of actuations: 120 (34 overfilling doses).
The two active ingredients in the compositions were stable after three months storage at 40° C. and 75% relative humidity, giving residual percent amounts of at least 95% TA 2005 and about 100% of Budesonide.

[2] = Stability study of TA 2005 HFA 134a formulations with 0.1M hydrochloric acid, upright cans at 40° C. and 75% relative humidity; assay type: physicochemical; conditions: TA 2005 1 μg/63 μl, 15% w/w ethanol
Procedure: Two aluminum canisters having the internal surface coated with teflon and fitted with commercial valves having a 63 μl metering chamber were filled with the following formulations shown in Table 2. A stability study was carried out by storing the formulations in upright cans at 40° C. and 75% relative humidity.

[3] = Stability study of TA 2005 HFA 134a formulation with 15.2M phosphoric acid, upright and inverted cans at 40° C. and 75% relative humidity; assay type: physicochemical; conditions: TA 2005 1 μg/63 μl, 15% w/w ethanol, phosphoric acid 15.2M 0.001 to 0.0027% w/w
Procedure: The formulation of Table 3 (120 actuations canister, overage of 30 actuations) was filled in aluminum canisters having the internal surface coated with teflon and fitted with commercial valves having a 63 μl metering chamber. A stability study was carried out by storing the formulation in upright and inverted cans at 40° C. and 75% relative humidity.

[4] = Stability of acidified TA 2005-HFA 134a solutions in cans coated with a fluorocarbon polymer, stored upright at 50° C.; assay type: physicochemical
Procedure: Comparative Example 1 (corresponding to Example 7 of WO 01/89480). Stability of acidified TA 2005-HFA 134a solutions in cans coated with a fluorocarbon polymer.
(§1) A solution of TA 2005 (3.5 μg/50 μl) was prepared by dissolving 0.84 mg of the active ingredient in HFA 134a containing 12% w/w ethanol and 1.0% w/w of isopropyl myristate. pMDI coated cans containing 1.0, 1.4, and 1.8 μl of 0.08 M hydrochloric acid (corresponding respectively to an apparent pH of about 4.8, 3.2, and 2.9) were set down on storage, upright at 50° C., and samples taken for analysis of TA 2005 contents at appropriate intervals.
Each value is expressed as percent nominal drug concentration.

[5] = 4 μg per actuation, HCl stabilized, stored upright at 5° C., after nine months (WO 03/074025); cited from earlier work
[6] = Apparent pH (acidity function pH') of acidified TA 2005 solutions; assay type: physicochemical; conditions: TA 2005 3.5 μg/50 μl in HFA 134a
From the text: The attribution ‘apparent’ is used as pH is indeed characteristic of aqueous liquids where water is the dominant component (Mole Fraction >0.95). […] Although the Nernst equation with respect to EMF applies and the pH-meter glass electrode system will generate a variable milli-volt output according to proton concentration and vehicle polarity, the “pH” meter reading is not a true pH value. The meter reading represents an apparent pH or acidity function (pH′).
Rather concentrated, i.e., more than about 10 M, preferably more than about 12 M, and most preferably about 15 M phosphoric acid is used to adjust the apparent pH. In the examples that follow 85%, i.e., 15.2M phosphoric acid has been used. The amount of acid to be added to reach the desired apparent pH will be pre-determined in the model vehicle reported before
1.0 M hydrochloric acid was added incrementally to 50 ml of HFA 43-10MEE (Vertrel XF) containing 20% w/w ethanol and the pH′ was measured after each aliquot of acid.
as §1

[7] = HFA propellant and ethanol, conventional aluminum or plastic coated glass cans; 40° C., 75% relative humidity, one month (WO 99/65460); cited from earlier work

| SMILES | residual percent amount after three months storage [1] | percent amount of TA 2005 after three months of storage ([2]; 0.1M HCl 0.018% w/w) [%] | percent amount of TA 2005 after three months of storage ([2]; 0.1M HCl 0.027% w/w) [%] | residual percent amount of TA 2005 after three months of storage [3] | TA 2005 content, percent nominal drug concentration, 50° C.; 22 days upright ([4]; 1.0 μl 0.08M HCl per can) [%] | TA 2005 content, percent nominal drug concentration, 50° C.; 83 days upright ([4]; 1.0 μl 0.08M HCl per can) [%] | TA 2005 content, percent nominal drug concentration, Initial ([4]; 1.0 μl 0.08M HCl per can, TA 2005 3.5 μg/50 μl, 12% w/w ethanol, 1.0% w/w isopropyl myristate) [%] | TA 2005 content, percent nominal drug concentration, 50° C.; 22 days upright ([4]; 1.4 μl 0.08M HCl per can) [%] | TA 2005 content, percent nominal drug concentration, 50° C.; 83 days upright ([4]; 1.4 μl 0.08M HCl per can) [%] | TA 2005 content, percent nominal drug concentration, Initial ([4]; 1.4 μl 0.08M HCl per can) [%] | TA 2005 content, percent nominal drug concentration, 50° C.; 22 days upright ([4]; 1.8 μl 0.08M HCl per can) [%] | TA 2005 content, percent nominal drug concentration, 50° C.; 83 days upright ([4]; 1.8 μl 0.08M HCl per can) [%] | TA 2005 content, percent nominal drug concentration, Initial ([4]; 1.8 μl 0.08M HCl per can) [%] | TA 2005 assay [5] | apparent pH ([6]; 1.0 μl of 0.08 M hydrochloric acid per can) | apparent pH ([6]; 1.4 μl of 0.08 M hydrochloric acid per can) | apparent pH ([6]; 1.8 μl of 0.08 M hydrochloric acid per can) | loss of drug [7] |
| --- | --- | --- | --- | --- | --- | --- | --- | --- | --- | --- | --- | --- | --- | --- | --- | --- | --- | --- |
| COc1ccc(C[C@@H](C)NC[C@H](O)c2ccc(O)c3[nH]c(=O)ccc23)cc1.Cl [TA 2005, 8-hydroxy-5-[(1R)-1-hydroxy-2-[[(1R)-2-(4-methoxyphenyl)-1-methylethyl]amino]ethyl]-2(1H)-quinolinone hydrochloride] | at least 95% | 73 | 77 | up to 98% | 98.3 | 99.4 | 100.0 | 98.2 | 98.8 | 100.0 | 90.2 | 88.1 | 100.0 | higher than 95% | about 4.8 | ~3.2 | ~2.9 |  |
| COc1ccc(C[C@@H](C)NC[C@H](O)c2ccc(O)c(NC=O)c2)cc1.COc1ccc(C[C@@H](C)NC[C@H](O)c2ccc(O)c(NC=O)c2)cc1.O=C(O)/C=C/C(=O)O [formoterol fumarate] |  |  |  |  |  |  |  |  |  |  |  |  |  |  |  |  |  | about 10% |
